How the values were obtained:
[1] = Acid neutralization test of tablets, time for pH to rise to 7 (Example 1); type: physicochemical; conditions: 840 mg tablet, basket 75 rpm, 50 ml SGF + 50 ml water
Method: 840 mg of each of magnesium hydroxide, tromethamine, and carbicarb were separately compressed into tablets utilizing a carver press having a 13 mm die at a 1 second dwell time and 500 pounds of compression force. Also, a first mixture containing 420 mg of magnesium hydroxide and 420 mg of tromethamine was also compressed into tablet-form using the method described above. Additionally, a second mixture containing 420 mg of magnesium hydroxide and 420 mg of carbicarb was compressed into tablet-form as previously described.
Each of the five different preparations was tested separately in the following manner. Tablets of each preparation were placed in a USP dissolution apparatus basket which was then attached to a spindle. The stirring component of the apparatus was set to rotate the basket at a speed of approximately 75 rpm. The loaded, rotating basket was then immersed into a beaker containing 50 ml of SGF and 50 ml of distilled de-ionized water. The pH of the medium in the beaker was monitored continuously throughout the test procedure utilizing a micro pH electrode.

[2] = Degradation of lansoprazole as a function of pH at 37 degrees C.; type: physicochemical; conditions: for half-life: buffer
Source text: For example, lansoprazole is a substituted benzimidaole that is an acid labile pharmaceutical compound that inhibits gastric acid secretions. The affect of gastric pH on the degradation of an acid-labile drug such as lansoprazole is conveyed in Table 1. The data shown in Table 1 was collected at 37 degrees C., wherein “K” reflects the first order degradation constant.

Row | SMILES | Time to Raise the pH of SGF to 7 at 37 degrees C. [1] [seconds] | half-life ([2]; pH 5, 37 degrees C.) [h] | half-life ([2]; pH 6, 37 degrees C.) [h] | half-life ([2]; pH 7, 37 degrees C.) [h] | half-life ([2]; pH 8, 37 degrees C.) [h] | half-life ([2]; pH 9, 37 degrees C.) [h] | % Drug Remaining After 30 Minutes ([2]; pH 5, 37 degrees C.) [%] | K (first order degradation constant) ([2]; pH 5, 37 degrees C.) [hr.^−1] | % Drug Remaining After 30 Minutes ([2]; pH 6, 37 degrees C.) [%] | K (first order degradation constant) ([2]; pH 6, 37 degrees C.) [hr.^−1] | % Drug Remaining After 30 Minutes ([2]; pH 7, 37 degrees C.) [%] | K (first order degradation constant) ([2]; pH 7, 37 degrees C.) [hr.^−1] | % Drug Remaining After 30 Minutes ([2]; pH 8, 37 degrees C.) [%] | K (first order degradation constant) ([2]; pH 8, 37 degrees C.) [hr.^−1] | % Drug Remaining After 30 Minutes ([2]; pH 9, 37 degrees C.) [%] | K (first order degradation constant) ([2]; pH 9, 37 degrees C.) [hr.^−1]
1 | [Mg+2].[OH-].[OH-] [Magnesium hydroxide] | 565 | – | – | – | – | – | – | – | – | – | – | – | – | – | – | –
2 | NC(CO)(CO)CO [Tromethamine (TRIS), Tromethamine] | 75 | – | – | – | – | – | – | – | – | – | – | – | – | – | – | –
3 | Cc1c(OCC(F)(F)F)ccnc1C[S+]([O-])c1nc2ccccc2[nH]1 (centres unmarked) [lansoprazole] | – | 0.52 | 3.4 | 18 | 37 | 78 | 51.37 | 1.33 | 90.30 | 0.20 | 98.10 | 0.04 | 99.10 | 0.02 | 99.57 | 0.01

Reference: US20100234430A1, “METHODS AND PHARMACEUTICAL FORMULATIONS FOR PROTECTING PHARMACEUTICAL COMPOUNDS FROM ACIDIC ENVIRONMENTS” (priority 2001, published 2010)
